The values that follow come from US8309790B2, “Animal models for demyelination disorders” (University of Chicago, priority 2005, dated 2012).

Read-outs that look alike come from different tables or passages of the source.

The test system of assay [1] is Hippocampal organotypic cultures. The assay is described as follows: Hippocampal organotypic cultures (HOC), in vitro model of myelination, MBP Western blot. It counts as cell-based. The conditions noted are these: for reduction of MBP expression elicited by IFN-γ exposure: SAL at various concentrations combined with 100 U/ml IFN-γ for 7 days. As to the method:
Our hypothesis is that the integrated stress response has the potential to protect oligodendrocytes from the harmful effects of the inflammatory response in patients with multiple sclerosis (MS). […] To test whether agents that prolong eIF2α phosphorylation might provide protection to oligodendrocytes against detrimental inflammatory factors, the effect of Salubrinol (Sal) in the presence of the immune cytokine IFN-γ was tested in an in vitro model of myelination.
HOCs, were prepared and maintained as described previously (Kunkler and Kraig (1997) J Cereb Blood Flow Metab. 17:26-43), and were maintained in vitro for 7 days before use. SAL at various concentrations was combined with 100 U/ml IFN-γ and added to the HOC cultures for 7 days. […] After 7 days of 100 U/ml IFN-γ exposure, the levels of MBP decreased approximately 80% in the HOCs (FIG. 29).

In another assay the test system is PP1-GADD34 phosphatase. The conditions noted are these: results in sustained eIF2α phosphorylation, cited from earlier work.
In assay [2] the test system is transgenic littermates overexpressing IFN-γ and/or SOCS1. The assay is described as follows: IFN-γ-overexpressing mice crossed to PLP/SOCS1 mice, clinical and histological evaluation at postnatal day 21. It counts as in vivo. The conditions noted are these: for Incidence of tremor: ten mice per group; for oligodendrocyte density: corpus callosum, postnatal day 21. From the text: The transgenic mice MBP/IFN-γ and GFAP/tTA×TRE/IFN-γ (lines 184/110 and 184/67) that overexpress IFN-γ in the CNS have been described elsewhere (Corbin et al., 1996; Gao et al., 2000; Lin et al., 2004, 2005). Briefly, MBP/IFN-γ mice are transgenic animals in which IFN-γ expression is driven by the myelin basic protein (MBP) transcriptional control region (Gao et al., 2000). GFAP/tTA×TRE/IFN-γ are double-transgenic mice obtained by mating single-transgenic GFAP/tTA to single-transgenic TRE/IFN-γ (lines 110 and 67) mice. The two TRE/IFN-γ mouse lines, line 110 and line 67, used in the experiments produce different amounts of IFN-γ when crossed to GFA/tTA mice (184/110 and 184/67) (Lin e al., 2004, 2005). GFAP/tTA×TRE/IFN-γ is a tetracycline-off-inducible system in which the glial fibrilary acidic protein (GFAP) transcriptional control region drives the expression of tTA, which in turn, binds to the TRE (tet responsive element) and initiates the expression of IFN-γ. Administration of doxycycline suppresses tTA DNA binding and IFN-γ expression, and doxycycline removal allows for temporally-controlled induction of IFN-γ expression (Gao et al., 1999).
IFN-γ-overexpressing mice were crossed to the PLP/SOCS1 mice in double-transgenic, (MBP/IFN-γ×PLP/SOCS1) and triple-transgenic (GFAP/tTA×TRE/IFN-γ×PLP/SOCS1) mating systems. MBP/IFN-γ×PLP/SOCS1 (172×PLP/SOCS1) mating was performed according to a standard mating protocol. The GFAP/tTA×TRE/IFN-γ×PLP/SOCS1 matings were performed in a 2-step mating process: GFAP/tTA mice were initially crossed to PLP/SOCS1 mice, and double-positive (184×PLP/SOCS1) offspring were then crossed to the TRE/IFN-γ lines 110 and 67, separately. This second mating step was performed according to the previously described “tet-off” protocol. Doxycycline 0.05 mg/ml (Sigma-Aldich) was added to the water of impregnated female mice until embryonic day 14, after which the animals were switched back to normal water, thereby allowing initiation of IFN-γ transcription, which peaks during the postnatal period (Lin et al., 2005).
The litters of the mating systems (F1 generation) were examined daily and sacrificed at postnatal day 21. Clinical evaluation included behavioral observation and challenged ladder walking to elicit tremor. Histological examination included quantitation of the number and density of oligodendrocytes and examination of the myelination patterns. Brain tissue was simultaneously obtained from each animal at the time of sacrifice to verify and measure the expression of IFN-γ and Flag-SOCS1 (see below). The clinical and histological findings were subsequently stratified according to genotype. All animal procedures were conducted in compliance with the National Institutes of Health Guide for Care and Use of Laboratory Animals and were approved by the Institutional Animal Care and Use Committee at The University of Chicago.
Oligodendrocyte cell density was assessed digitally using Axiovision software, at postnatal day 21, as previously described (Lin et al., 2005). The brains were sectioned sagittally through the corpus callosum dividing the brain in two symmetrical halves. Ten frozen sections from each half were prepared at 7 μm thickness, and numbered in the sequence of their preparation. The brains of three animals per study group were prepared in this fashion. Following the CC1 immunostaining the corresponding area of corpus callosum of each section was digitally selected and the corresponding total area obtained. CC1 cell counting was performed manually within the selected areas of each section, and the number of CC1 positive cells per square area (mm^2) calculated. The results were presented as mean±SD of CC1 (+) cells/mm^2 with n=3 animals per study group. […]

`O=C(/C=C/c1ccccc1)NC(NC(=S)Nc1cccc2cccnc12)C(Cl)(Cl)Cl` (stereo not shown) [SAL, salubrinal]: the figures for the “reduction of MBP expression elicited by IFN-γ exposure” value in assay [1] and in assay [1] (listed as Sal) were “markedly attenuated” and “attenuating effect”, respectively. In addition, the MBP expression result in assay [1] (SAL treatment alone) was “did not affect”. For the same molecule, the PP1-GADD34 phosphatase activity result is listed as “specifically inhibits” with PP1-GADD34 phosphatase and “specifically inhibit” in the assay with PP1-GADD34 phosphatase (listed as Salubrinol).

B1: suppressor of cytokine signaling 1 (protein, UniProt O35716 1-212, looked up)
Suppressor of cytokine …: MVARNQVAADNAISPAAEPRRRSEPSSSSSSSSPAAPVRPRPCPAVPAPAPGDTHFRTFRSHSDYRRITRTSALLDACGFYWGPLSVHGAHERLRAEPVGTFLVRDSRQRNCFFALSVKMASGPTSIRVHFQAGRFHLDGSRETFDCLFELLEHYVAAPRRMLGAPLRQRRVRPLQELCRQRIVAAVGRENLARIPLNPVLRDYLSSFPFQI
modifications: Flag tag
With B1, the Incidence of tremor in assay [2] (172 × PLP/SOCS1 mating system), in assay [2] (184/67 × PLP/SOCS1 mating system) and in assay [2] (184/110 × PLP/SOCS1 mating system) was 0% in each case. The oligodendrocyte density is 142±5 CC1 (+) cells/mm^2 in assay [2] (184/67 × PLP/SOCS1 system) and 141±6 CC1 (+) cells/mm^2 in assay [2] (184/110 × PLP/SOCS1 system).
